Here are results for one compound from patent US10947229B2, “Dimethyl amino azetidine amides as JAK inhibitors” (THERAVANCE BIOPHARMA R&D IP, LLC, priority 2018, dated 2021).

Type in all cases: cell-based
Experiment [1] concerns IL-12 stimulated STAT4 phosphorylation in CD3+ T cells. The experiment can be described thus: Cellular JAK potency assay: inhibition of IL-12-induced pSTAT4. Particulars: T-cell; CD3+ T cells from human whole blood; read-out: pIC50, inhibition of IL-12-induced pSTAT4 (converted). On the procedure: The potency of test compounds for inhibition of interleukin-12 (IL-12) stimulated STAT4 phosphorylation was measured in CD3-positive (CD3+) T cells derived from human whole blood (Stanford Blood Center) using flow cytometry. Because IL-12 signals through JAK, this assay provides a measure of JAK cellular potency. CD3+ T cells were identified using a phycoerythrin (PE) conjugated anti-CD3 antibody (clone UCHT1, BD Biosciences), and an Alexa Fluor 647 conjugated anti-pSTAT4 antibody (clone 38/p-Stat4, BD Biosciences) was used to detect STAT4 phosphorylation. Human peripheral blood mononuclear cells (PBMC) were isolated from human whole blood of healthy donors using a ficoll gradient. […] After incubation, cells were washed twice in FACS buffer before being analyzed using a MACSQuant flow cytometer (Miltenyi). To determine the inhibitory potency of the test compound, the median fluorescent intensity (MFI) of pSTAT4 was measured in CD3+ T cells. IC50 values were determined from analysis of the inhibition curves of MFI vs compound concentration. Data are expressed as pIC50 (negative decadic logarithm IC50) values.

In experiment [2] the test system is spontaneous IL-6 secretion. As to the kind of experiment: Inhibition of spontaneous IL-6 secretion in human 3D airway cultures from asthmatic donors. To be noted: 192 h, 8 days, 3 or 4 donors. The protocol:
EpiAirway tissue cultures were obtained from Mattek (AIR-100). Cells were derived from asthmatic donors that spontaneously secrete periostin, a matricellular protein associated with Th2 mediated asthma (eosinophilic), and interleukin-6 (IL-6), an inflammatory cytokine that plays a role in both Th2 and non-Th2 related asthma. In a cell culture insert, human derived tracheal/bronchial epithelial cells were grown and differentiated on a porous membrane support, allowing an air-liquid interface with warmed culture medium below the cells and a gaseous test atmosphere above. Tissues were cultured in maintenance media ([…]) in a 37° C., 5% CO2 humidified incubator. Four donors were tested. On Day 0, tissue cultures were treated with test compounds in liquid interface at 10 μM, 1 μM and/or 0.1 μM. Compounds were diluted in dimethyl sulfoxide (DMSO, Sigma) to a final concentration of 0.1%. DMSO at 0.1% was used as a vehicle control. Tissue cultures were maintained for 8 days. Media was replaced every 2 days with fresh media containing compounds. On Day 8, supernatants were collected for analysis. Supernatant samples were assayed for periostin and interleukin-6 (IL-6) using luminex analysis (EMD Millipore). Data is expressed as % Inhibition+/-standard deviation (±STDV). Percent inhibition was determined by compound inhibitory potency against spontaneous secretion of periostin and IL-6 compared to vehicle treated cells. Data is the average from 3 or 4 donors.

The subject of experiment [3] is IL-27 induced CXCL9 secretion. The experiment can be described thus: Inhibition of IL-27 induced CXCL9 in human 3D airway cultures. To be noted: 192 h, 8 days, 4 donors. On the procedure: EpiAirway tissue cultures were obtained from Mattek (AIR-100). Cultures were derived from asthmatic donors. In a cell culture insert, human derived tracheal/bronchial epithelial cells were grown and differentiated on a porous membrane support, allowing an air-liquid interface with warmed culture medium below the cells and a gaseous test atmosphere above. Tissues were cultured in maintenance media ([…]) in a 37° C., 5% CO2 humidified incubator. Four donors were tested. On Day 0, tissue cultures were treated with test compounds in liquid interface at 10 μM, 1 μM and/or 0.1 μM. Compounds were diluted in dimethyl sulfoxide (DMSO, Sigma) to a final concentration of 0.1%. DMSO at 0.1% was used as a vehicle control. […] Tissue cultures were maintained for 8 days. Media was replaced every 2 days with fresh media containing compounds and IFNγ or IL-27. On Day 8, tissue cultures and supernatants were collected for analysis. Supernatant samples were assayed for CXCL10 (IP-10) and CXCL9 (MIG) using luminex analysis (EMD Millipore). Data is expressed as % Inhibition+/-standard deviation (±STDV). Percent inhibition was determined by compound inhibitory potency against IFNγ or IL-27 induced CXCL10 or CXCL9 secretion compared to vehicle treated cells. Data is the average from 4 donors.

Each structure is given as a SMILES string.

Regarding `CCc1cc(O)ccc1-c1ccc2c(-c3nc4c([nH]3)CN(C(C)C)[C@H](C(=O)N3CC(N(C)C)C3)C4)n[nH]c2c1` [Compound 1, (S)-(3-(dimethylamino)azetidin-1-yl)(2-(6-(2-ethyl-4-hydroxyphenyl)-1H-indazol-3-yl)-5-isopropyl-4,5,6,7-tetrahydro-3H-imidazo[4,5-c]pyridin-6-yl)methanone], the IC50 in experiment [1] was 1000 nM. In addition, the figures for the inhibition at 0.1 µM in experiment [2] (0.1 μM) and in experiment [3] (0.1 μM) were 10% and 52%, respectively. The values for the inhibition at 1 µM in experiment [2] (1 μM) and in experiment [3] (1 μM) were 70% and 97%, respectively. For the same compound, the inhibition at 10 µM in experiment [2] (10 μM) worked out at 91%; in experiment [3] (10 μM), 100%.
